Data as given in patent US20260077051A1, “COMPOUNDS FOR THE DEGRADATION OF EGFR KINASE” (BeOne Medicines I GmbH, priority 2023, published 2026).

Legend:
[1] = target: T1, EGFR L858R (BaF3-L858R cells) (Homo sapiens, UniProt P00533, L858R); experiment: EGFR degradation in BaF3-L858R cells (HTRF assay); type: cell-based; conditions: 16 h treatment; for DC50: IC50(DC50) of EGFR degradation; for Dmax: maximum percentage of inhibition (degradation)
T1 construct: host or cells: BaF3
Description: BaF3-L858R (abbv. L858R) cell were purchased from Kangyuan Bochuang Biotechnology (Beijing) Co., Ltd.
(§1) H1975-#8 and BaF3-L858R cells are treated with compounds diluted in 0.1% DMSO cell culture medium on day 2, incubate for 16 h, 37° C., 5% CO2. the final concentration of compounds in all assay is start with 10 uM, 5-fold dilution, total 8 doses were included.
(§2) After 16 h treatment, for H1975-#8 cells, add 100 ul HTRF 1× lysis buffer to each well; for BaF3-L858R cells, add 20 μl 4× lysis buffer to each well; seal the plate and incubate 1 hour at room temperature on a plate shaker; Once the cells are lysed, 16 μL of cell lysate are transferred to a PE 384-well HTRF detection plate; 4 μL of pre-mixed HTRF antibodies are added to each well; Cover the plate with a plate sealer, spin 1000 rpm for 1 min, Incubate overnight at room temperature; Read on BMG PheraStar with HTRF protocol (337 nm-665 nm-620 nm).
(§3) The inhibition (degradation) percentage of the compound was calculated by the following equation:
(§4) High control=Cell group with added DMSO and without compound, indicating microplate readings without EGFR degradation;
(§5) Dmax is the maximum percentage of inhibition (degradation).
(§6) The IC50(DC50) value of a compound can be obtained by fitting the following equation
(§7) Wherein, X and Y are known values, and IC50, Hillslope, Top and Bottom are the parameters obtained by fitting with software. Y is the inhibition percentage (calculated from the equation), X is the concentration of the compound; IC50 is the concentration of the compound when the 50% inhibition is reached. The smaller the IC50 value is, the stronger the inhibitory ability of the compound is. Vice versa, the higher the IC50 value is, the weaker the ability the inhibitory ability of the compound is; Hillslope represents the slope of the fitted curve, generally around 1*; Bottom represents the minimum value of the curve obtained by data fitting, which is generally 0%±20%; Top represents the maximum value of the curve obtained by data fitting, which is generally 100%±20%. The experimental data were fitted by calculating and analyzing with Dotmatics data analysis software.

[2] = target: T2, EGFR-L858R/C797S (H1975-clone #8 cells) (Homo sapiens, UniProt P00533, C797S/L858R); experiment: EGFR degradation in H1975-clone#8 (L858R/C797S) cells (HTRF assay); type: cell-based; conditions: 16 h treatment; for DC50: IC50(DC50) of EGFR degradation; for Dmax: maximum percentage of inhibition (degradation)
T2 construct: expressed in transfected cells; host or cells: H1975 (lentiviral transduction, endogenous EGFR knocked out, single clone #8)
Description: H1975-clone #8 (L858R/C797S): EGFR-L858R/C797S were stably expressed in H1975 cell lines by lentivirus-mediated over-expression, respectively. The EGFR over-expressed cells then underwent knockout, in which the EGFR targeting sgRNA was designed to only target the endogenous EGFR copies and preserve the exogenous EGFR copies. Followed by the knockout, the edited H1975 cells were seeded in 96 well plates at the concentration of […], cultured for about 2 weeks to allow single clones formation. The formed clones were screened by DNA sequencing and whole exon sequencing analysis for the desired edition. H1975-clone #8 were finally confirmed as homozygous L858R/C797S EGFR clones.
as §1, §2, §3, §4, §5, §6, §7

T2 sequence (P00533 25-1210 C797S/L858R): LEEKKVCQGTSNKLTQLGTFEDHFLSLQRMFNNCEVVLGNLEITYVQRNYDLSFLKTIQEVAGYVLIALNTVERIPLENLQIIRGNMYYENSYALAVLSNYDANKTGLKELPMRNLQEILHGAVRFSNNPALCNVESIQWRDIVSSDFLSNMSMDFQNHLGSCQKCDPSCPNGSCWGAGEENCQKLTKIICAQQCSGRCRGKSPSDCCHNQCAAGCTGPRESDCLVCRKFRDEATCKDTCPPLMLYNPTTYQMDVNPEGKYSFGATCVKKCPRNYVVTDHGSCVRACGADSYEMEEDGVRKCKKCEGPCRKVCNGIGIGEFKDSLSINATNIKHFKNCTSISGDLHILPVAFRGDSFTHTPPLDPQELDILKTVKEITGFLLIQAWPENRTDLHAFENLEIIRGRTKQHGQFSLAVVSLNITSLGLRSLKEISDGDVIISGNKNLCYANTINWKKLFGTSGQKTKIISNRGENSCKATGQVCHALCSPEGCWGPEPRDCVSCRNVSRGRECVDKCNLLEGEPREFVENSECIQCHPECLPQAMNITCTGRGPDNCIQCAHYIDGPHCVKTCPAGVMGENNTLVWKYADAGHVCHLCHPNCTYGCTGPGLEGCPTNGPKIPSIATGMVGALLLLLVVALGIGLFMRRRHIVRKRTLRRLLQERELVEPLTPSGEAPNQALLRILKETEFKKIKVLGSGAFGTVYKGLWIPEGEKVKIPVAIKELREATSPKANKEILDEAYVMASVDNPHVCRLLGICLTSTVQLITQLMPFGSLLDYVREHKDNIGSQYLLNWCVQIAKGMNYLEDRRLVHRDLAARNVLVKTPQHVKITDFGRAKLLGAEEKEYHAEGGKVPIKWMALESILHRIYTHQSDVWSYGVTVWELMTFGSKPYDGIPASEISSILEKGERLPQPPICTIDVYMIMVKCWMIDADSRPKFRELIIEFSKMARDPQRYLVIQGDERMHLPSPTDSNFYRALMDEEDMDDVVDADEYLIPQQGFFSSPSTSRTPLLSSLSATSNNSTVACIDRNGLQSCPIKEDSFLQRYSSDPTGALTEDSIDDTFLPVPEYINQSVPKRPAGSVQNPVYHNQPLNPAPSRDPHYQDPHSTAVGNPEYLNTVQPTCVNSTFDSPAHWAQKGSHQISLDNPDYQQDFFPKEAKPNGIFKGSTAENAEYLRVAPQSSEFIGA
T1 sequence (P00533 25-1210 L858R): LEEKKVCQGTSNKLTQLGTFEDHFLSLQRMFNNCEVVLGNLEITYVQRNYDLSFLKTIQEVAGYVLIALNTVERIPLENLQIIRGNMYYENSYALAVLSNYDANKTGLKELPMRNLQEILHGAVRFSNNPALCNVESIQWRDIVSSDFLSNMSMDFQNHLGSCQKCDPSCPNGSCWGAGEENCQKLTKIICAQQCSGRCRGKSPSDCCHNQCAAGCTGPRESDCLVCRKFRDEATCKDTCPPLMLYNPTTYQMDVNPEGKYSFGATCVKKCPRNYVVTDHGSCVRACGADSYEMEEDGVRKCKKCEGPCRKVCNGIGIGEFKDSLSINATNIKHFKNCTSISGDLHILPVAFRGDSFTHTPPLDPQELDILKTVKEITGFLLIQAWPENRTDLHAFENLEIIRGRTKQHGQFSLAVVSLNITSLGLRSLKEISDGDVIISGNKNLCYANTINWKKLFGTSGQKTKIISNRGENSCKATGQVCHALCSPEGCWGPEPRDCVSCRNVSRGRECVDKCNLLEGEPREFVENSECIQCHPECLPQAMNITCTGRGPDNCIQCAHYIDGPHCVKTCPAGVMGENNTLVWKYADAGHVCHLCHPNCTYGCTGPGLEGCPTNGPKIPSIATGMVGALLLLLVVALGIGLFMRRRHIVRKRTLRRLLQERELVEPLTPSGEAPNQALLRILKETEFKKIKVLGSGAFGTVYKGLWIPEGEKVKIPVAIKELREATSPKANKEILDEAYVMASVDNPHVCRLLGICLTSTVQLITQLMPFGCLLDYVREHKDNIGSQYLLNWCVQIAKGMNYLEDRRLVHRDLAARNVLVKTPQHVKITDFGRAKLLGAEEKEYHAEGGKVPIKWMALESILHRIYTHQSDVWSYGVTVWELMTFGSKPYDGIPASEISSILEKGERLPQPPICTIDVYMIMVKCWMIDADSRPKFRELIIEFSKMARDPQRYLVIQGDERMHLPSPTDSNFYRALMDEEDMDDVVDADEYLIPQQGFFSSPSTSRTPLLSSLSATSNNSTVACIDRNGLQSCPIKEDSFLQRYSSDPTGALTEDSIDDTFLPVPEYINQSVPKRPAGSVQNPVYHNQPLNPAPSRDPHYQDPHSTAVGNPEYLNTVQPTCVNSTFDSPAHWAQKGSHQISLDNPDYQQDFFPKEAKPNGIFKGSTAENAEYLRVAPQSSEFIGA

Row | Structure (SMILES) | DC50 [1] [nM] | Dmax [1] [%] | DC50 [2] [nM] | Dmax [2] [%]
1 | Cc1cc2cc(n1)-c1cnn(C)c1OCC[C@]1(C)C[C@H]1CN1/C(=N/C2=O)Nc2ccc(N3CCN(C4CN(C5CCN(c6cc(F)c([C@H]7CCC(=O)NC7=O)c(F)c6)CC5)C4)C[C@@H]3C)cc21 [Example 27, (R)-3-(2,6-difluoro-4-(4-(3-((S)-3-methyl-4-((7^1R,7^2S,E)-1^1,2^6,7^2-trimethyl-3-oxo-5^2,5^3-dihydro-1^1H,5^1H-10-oxa-4-aza-5 (2,1)-benzo[d]imidazola-2 (2,4)-pyridina-1 (4,5)-pyrazola-7 (1,2)-cyclopropanacyclodecaphane-5^6-yl)piperazin-1-yl)azetidin-1-yl)piperidin-1-yl)phenyl)piperidine-2,6-dione] | 1.25 | 79.1 | 1.31 | 63.6
2 | Cc1cc2cc(n1)-c1cnn(C)c1OCC[C@H]1C[C@@H]1CN1/C(=N/C2=O)Nc2ccc(N3CC4CCC3CN4C3CN(C4CCN(c5c(C)cc(C6CCC(=O)NC6=O)nc5C)CC4)C3)cc21 (stereo partly shown) [Example 28, 3-(5-(4-(3-(5-((7^1S,7^2R,E)-1^1,2^6-dimethyl-3-oxo-5^2,5^3-dihydro-1^1H,5^1H-10-oxa-4-aza-5 (2,1)-benzo[d]imidazola-2 (2,4)-pyridina-1 (4,5)-pyrazola-7 (1,2)-cyclopropanacyclodecaphane-5^6-yl)-2,5-diazabicyclo[2.2.2]octan-2-yl)azetidin-1-yl)piperidin-1-yl)-4,6-dimethylpyridin-2-yl)piperidine-2,6-dione] | 6.31 | 78.2 | 2.71 | 49
3 | Cc1cc2cc(n1)-c1cnn(C)c1OCC[C@]1(C)C[C@H]1CN1/C(=N/C2=O)Nc2ccc(N3CCC(C(=O)N4CCC(Oc5cc(F)c([C@H]6CCC(=O)NC6=O)c(F)c5)CC4)CC3)cc21 [Example 29, (R)-3-(2,6-difluoro-4-((1-(1-((7^1R,7^2S,E)-1^1,2^6,7^2-trimethyl-3-oxo-5^2,5^3-dihydro-1^1H,5^1H-10-oxa-4-aza-5 (2,1)-benzo[d]imidazola-2 (2,4)-pyridina-1 (4,5)-pyrazola-7 (1,2)-cyclopropanacyclodecaphane-5^6-yl)piperidine-4-carbonyl)piperidin-4-yl)oxy)phenyl)piperidine-2,6-dione] | 3.9 | 67.8 | 0.986 | 49.2
4 | Cc1cc2cc(n1)-c1cnn(C)c1OCC[C@H]1C[C@@H]1CN1/C(=N/C2=O)Nc2ccc(N3CCN([C@H]4CCN(c5cc(F)c(C6CCC(=O)NC6=O)nc5C)C[C@H]4F)CC3)cc21 (stereo partly drawn) [Example 30, 3-(5-((3R,4S)-4-(4-((7^1S,7^2R,E)-1^1,2^6-dimethyl-3-oxo-5^2,5^3-dihydro-1^1H,5^1H-10-oxa-4-aza-5 (2,1)-benzo[d]imidazola-2 (2,4)-pyridina-1 (4,5)-pyrazola-7 (1,2)-cyclopropanacyclodecaphane-5^6-yl)piperazin-1-yl)-3-fluoropiperidin-1-yl)-3-fluoro-6-methylpyridin-2-yl)piperidine-2,6-dione] | 21 | 89.3 | 9.57 | 57.5
5 | CCc1nc(C2CCC(=O)NC2=O)ccc1N1CC[C@H](N2CCN(c3ccc4c(c3)N3C[C@H]5C[C@@H]5CCOc5c(cnn5C)-c5cc(cc(C)n5)C(=O)/N=C/3N4)CC2)[C@H](F)C1 (stereo partly drawn) [Example 31, 3-(5-((3R,4S)-4-(4-((7^1S,7^2R,E)-1^1,2^6-dimethyl-3-oxo-5^2,5^3-dihydro-1^1H,5^1H-10-oxa-4-aza-5 (2,1)-benzo[d]imidazola-2 (2,4)-pyridina-1 (4,5)-pyrazola-7 (1,2)-cyclopropanacyclodecaphane-5^6-yl)piperazin-1-yl)-3-fluoropiperidin-1-yl)-6-ethylpyridin-2-yl)piperidine-2,6-dione] | 4.61 | 89.5 | 9.56 | 69.3
6 | CCc1nc(C2CCC(=O)NC2=O)ccc1N1CC[C@@H](N2CCN(c3ccc4c(c3)N3C[C@H]5C[C@@H]5CCOc5c(cnn5C)-c5cc(cc(C)n5)C(=O)/N=C/3N4)CC2)[C@@H](F)C1 (stereo partly drawn) [Example 32, 3-(5-((3S,4R)-4-(4-((7^1S,7^2R,E)-1^1,2^6-dimethyl-3-oxo-5^2,5^3-dihydro-1^1H,5^1H-10-oxa-4-aza-5 (2,1)-benzo[d]imidazola-2 (2,4)-pyridina-1 (4,5)-pyrazola-7 (1,2)-cyclopropanacyclodecaphane-5^6-yl)piperazin-1-yl)-3-fluoropiperidin-1-yl)-6-ethylpyridin-2-yl)piperidine-2,6-dione] | 6.44 | 84.5 | 10.5 | 60.9
7 | Cc1cc2cc(n1)-c1cnn(C)c1OCC[C@H]1C[C@@H]1CN1/C(=N/C2=O)Nc2ccc(N3CCN([C@@H]4CCN(c5c(C)cc(C6CCC(=O)NC6=O)nc5C)C[C@@H]4F)CC3)cc21 (stereo partly drawn) [Example 33, 3-(5-((3S,4R)-4-(4-((7^1S,7^2R,E)-1^1,2^6-dimethyl-3-oxo-5^2,5^3-dihydro-1^1H,5^1H-10-oxa-4-aza-5 (2,1)-benzo[d]imidazola-2 (2,4)-pyridina-1 (4,5)-pyrazola-7 (1,2)-cyclopropanacyclodecaphane-5^6-yl)piperazin-1-yl)-3-fluoropiperidin-1-yl)-4,6-dimethylpyridin-2-yl)piperidine-2,6-dione] | 8.38 | 89.1 | 4.74 | 44.3
8 | Cc1cc2cc(n1)-c1cnn(C)c1OCC[C@H]1C[C@@H]1CN1/C(=N/C2=O)Nc2ccc(N3CCN([C@@H]4CCN(c5cc(F)c(C6CCC(=O)NC6=O)nc5C)C[C@@H]4F)CC3)cc21 (stereo partly drawn) [Example 34, 3-(5-((3S,4R)-4-(4-((7^1S,7^2R,E)-1^1,2^6-dimethyl-3-oxo-5^2,5^3-dihydro-1^1H,5^1H-10-oxa-4-aza-5 (2,1)-benzo[d]imidazola-2 (2,4)-pyridina-1 (4,5)-pyrazola-7 (1,2)-cyclopropanacyclodecaphane-5^6-yl)piperazin-1-yl)-3-fluoropiperidin-1-yl)-3-fluoro-6-methylpyridin-2-yl)piperidine-2,6-dione] | 7.47 | 83.8 | 11.9 | 57
9 | Cc1cc2cc(n1)-c1cnn(C)c1OCC[C@H]1C[C@@H]1CN1/C(=N/C2=O)Nc2ccc(N3CCN(CCc4cc(F)c([C@H]5CCC(=O)NC5=O)c(F)c4)C(C4CCOC4)C3)cc21 (stereo partly drawn) [Example 35, (3R)-3-(4-(2-(4-((7^1S,7^2R,E)-1^1,2^6-dimethyl-3-oxo-5^2,5^3-dihydro-1^1H,5^1H-10-oxa-4-aza-5 (2,1)-benzo[d]imidazola-2 (2,4)-pyridina-1 (4,5)-pyrazola-7 (1,2)-cyclopropanacyclodecaphane-5^6-yl)-2-(tetrahydrofuran-3-yl)piperazin-1-yl)ethyl)-2,6-difluorophenyl)piperidine-2,6-dione] | 22 | 59 | 8.44 | 41.4
10 | Cc1cc2cc(n1)-c1cnn(C)c1OCC[C@H]1C[C@@H]1CN1/C(=N/C2=O)Nc2ccc(N3CCN(C4CN(C5CCN(c6ccc(C7CCC(=O)NC7=O)nc6C)CC5)C4)C[C@@H]3C)cc21 (stereo partly drawn) [Example 36, 3-(5-(4-(3-((S)-4-((7^1S,7^2R,E)-1^1,2^6-dimethyl-3-oxo-5^2,5^3-dihydro-1^1H,5^1H-10-oxa-4-aza-5 (2,1)-benzo[d]imidazola-2 (2,4)-pyridina-1 (4,5)-pyrazola-7 (1,2)-cyclopropanacyclodecaphane-5^6-yl)-3-methylpiperazin-1-yl)azetidin-1-yl)piperidin-1-yl)-6-methylpyridin-2-yl)piperidine-2,6-dione] | 13.4 | 68.5 | 2.61 | 41.7
